Measured values taken from US8686177B2, “LPA receptor agonists and antagonists” (RxBio, Inc., priority 2008, dated 2014).

Key:
LPA receptors (LPA1/2/3) = experiment: LPA receptor agonist/antagonist activity (Table 4); assay type: cell-based
Experimental: Compounds were tested for their ability to induce or inhibit LPA-induced calcium transients in RH7777 rat hepatoma cells stably expressing LPA1, LPA2, and LPA3 receptors and in PC-3 that express LPA1-3 endogenously, using a FlexStation II automated fluorometer (Molecular Devices, Sunnyvale, Calif.).
RH7777 cells stably expressing either LPA1, LPA2 or LPA3 or PC-3 cells were plated on poly-D lysine-coated black wall clear bottom 96-well plates (Becton Dickinson, San Jose, Calif.) with a density of 50000 cells/well, and cultured overnight. The culture medium (DMEM containing 10% FBS) was then replaced with modified Krebs solution (120 mM NaCl, 5 mM KCl, 0.62 mM MgSO4, 1.8 mM CaCl2, 10 mM HEPES, 6 mM glucose, pH 7.4) and the cells were serum starved for 6-8 hours (12 h for PC-3 cells). Cells were loaded with Fura-2 AM for 35 minutes in modified Krebs medium. The Fura-2 was removed before loading the plate in the FlexStation instrument by replacing the medium once again with 100 μl modified Krebs medium/well. Plates were incubated for 4 minutes in the instrument to allow for warming to 37° C. Changes in intracellular Ca^2+ concentration were monitored by measuring the ratio of emitted light intensity at 520 nm in response to excitation by 340 nm and 380 nm wavelength lights, respectively. Each well was monitored for 80-120 seconds. […] Time courses were recorded using the SoftMax Pro software (Molecular Devices, Sunnyvale, Calif.). Ca^+ transients were quantified automatically by calculating the difference between maximum and baseline ratio values for each well.

IEC-6 cells [1] = experiment: Camptothecin-induced DNA fragmentation in IEC-6 cells (Example 8, Cell Death Detection ELISA); assay type: cell-based; conditions: 20 μM camptothecin; LPA and FAP 12 at 10 μM
Experimental: IEC-6 cells were grown in DMEM medium supplemented with 5% fetal bovine serum, insulin (10 μg/ml), gentamycin sulfate (50 μg/ml), and incubated at 37° C. in a humidified 90% air-10% CO2 atmosphere. Medium was changed every other day. Sub-confluent cells were washed twice and replaced by DMEM without serum the night before experiments.
Damage and IEC-6 cell apoptosis was induced via either γ-irradiation or chemotherapy. 20 Gy single dose of [^137Cs] source γ-irradiation was used in all experiments. […] In some experiments, LPA was added at different times before or after irradiation. Treatment with 20 μM camptothecin of IEC-6 cells induces DNA fragmentation as measured by the ELISA assay at 16 h after treatment. DNA fragmentation was quantified using the Cell Death Detection ELISA kit from Boehringer (Indianapolis, Ind.) according to the instructions of the manufacturer. Samples were run in triplicate. A duplicate of the sample was used to quantify protein concentration using the BCA kit from Pierce (Rockford, Ill.). DNA fragmentation was expressed as absorbance units per μg protein per minute.

LPA1 receptor = biological target: T1, LPA1 receptor (Homo sapiens, UniProt Q92633); experiment: LPA-induced Ca2+ transients in RH7777 cells stably expressing LPA1 (agonism/antagonism); assay type: cell-based; conditions: RH7777 cells expressing LPA1, compared to LPA 18:1
T1 construct: expressed in transfected cells
Experimental: (§1) RH7777 cells stably expressing either LPA1, LPA2 or LPA3 or PC-3 cells were plated on poly-D lysine-coated black wall clear bottom 96-well plates (Becton Dickinson, San Jose, Calif.) with a density of 50000 cells/well, and cultured overnight. The culture medium (DMEM containing 10% FBS) was then replaced with modified Krebs solution (120 mM NaCl, 5 mM KCl, 0.62 mM MgSO4, 1.8 mM CaCl2, 10 mM HEPES, 6 mM glucose, pH 7.4) and the cells were serum starved for 6-8 hours (12 h for PC-3 cells). […] Changes in intracellular Ca^2+ concentration were monitored by measuring the ratio of emitted light intensity at 520 nm in response to excitation by 340 nm and 380 nm wavelength lights, respectively. Each well was monitored for 80-120 seconds. […] Time courses were recorded using the SoftMax Pro software (Molecular Devices, Sunnyvale, Calif.). Ca^+ transients were quantified automatically by calculating the difference between maximum and baseline ratio values for each well.
(§2) These new analogs were evaluated as agonists and antagonists with respect to LPA1-3. […]

LPA2 receptor = biological target: T2, LPA2 receptor (Homo sapiens, UniProt Q9HBW0); experiment: LPA-induced Ca2+ transients in RH7777 cells stably expressing LPA2 (agonism/antagonism); assay type: cell-based; conditions: RH7777 cells expressing LPA2, compared to LPA 18:1
T2 construct: expressed in transfected cells
Experimental: as §1, §2

LPA3 receptor = biological target: T3, LPA3 receptor (Homo sapiens, UniProt Q9UBY5); experiment: LPA-induced Ca2+ transients in RH7777 cells stably expressing LPA3 (agonism/antagonism); assay type: cell-based; conditions: RH7777 cells expressing LPA3, compared to LPA 18:1
T3 construct: expressed in transfected cells
T3 sequence (Q9UBY5 1-353): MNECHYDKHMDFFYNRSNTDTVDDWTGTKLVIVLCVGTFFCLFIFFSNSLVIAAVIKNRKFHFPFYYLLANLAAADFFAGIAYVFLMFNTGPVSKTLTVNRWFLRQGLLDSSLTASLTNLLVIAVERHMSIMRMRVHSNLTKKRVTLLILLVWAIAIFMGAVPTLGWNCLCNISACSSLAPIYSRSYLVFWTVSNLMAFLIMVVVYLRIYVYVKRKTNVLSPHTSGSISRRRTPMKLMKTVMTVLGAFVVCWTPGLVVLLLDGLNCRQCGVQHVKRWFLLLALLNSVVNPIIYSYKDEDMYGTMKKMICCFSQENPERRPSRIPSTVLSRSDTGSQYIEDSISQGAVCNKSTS
Experimental: as §1, §2

[2] = test system: small intestine crypts of irradiated mice; experiment: Crypt survival in whole-body gamma-irradiated mice (Example 9); assay type: in vivo
Experimental: ICR strain male mice (Harlan Laboratories, body weight 30-33 g) on a 12 h light/dark cycle and otherwise maintained on a standard laboratory chow ad libitum were starved for 16 h prior to treatment. WBI was done with a 12 Gy or 15 Gy dose using Cs^137 source at a dose rate of 1.9 Gy per minute. Groups of four mice received either 250 μl of 1 mM LPA complexed with 100 μM BSA dissolved in Hanks basal salt solution or the BSA vehicle alone 2 h prior to irradiation.
For detection of the apoptotic bodies, mice were euthanized with carbon dioxide inhalation 4 h after irradiation and the small intestine was dissected and fixed in neutral phosphate buffered isotonic 10% formalin. Four ˜3- to 4-mm long segments from the small intestine were embedded in paraffin, 5 μM thick sections were cut and stained with hematoxilin and eosin. The number of surviving crypts was counted 3.5 days after irradiation.

IEC-6 cells [3] = experiment: DNA fragmentation assay in camptothecin-induced IEC-6 cells (Example 11, FIG. 7); assay type: cell-based; conditions: 20 μM camptothecin, 15 min pre-treatment, 6 hours
Experimental: IEC-6 cells were obtained from the American Type Culture Collection (Manassas, Va.) and were grown in Dulbecco's modified Eagle medium (DMEM) supplemented with 10% fetal bovine serum, 10 μg/ml insulin, and 50 μg/ml gentamicin sulfate at 37° C. in a humidified 90% air/10% CO2 atmosphere. The medium was changed every other day. Cells between passage 15 and 21 were used for the experiments. Newly synthesized RxBio analogs at doses ranging from […] were used to pre-treat IEC-6 cells for 15 min. Apoptosis was induced by 20 μM camptothecin following the pre-treatment. DNA fragmentation was measured 6 hours after camptothecin treatment by enzyme-linked immunosorbent assay using the cell death detection ELISA^PLUS kit from Roche (Indianapolis, Ind.) following the instruction of the manufacturer. Briefly, cells were harvested and lysed in DNA lysis buffer for 30 min. Sample lysates were collected after centrifugation at 200 rpm for 10 min. 10 μl of supernatant was loaded individually in a 96-well streptavidin-coated plate and incubated with immunoreagents (anti-histone-biotin plus anti-DNA peroxidase conjugated antibody) on a shaker for 2 h. […] DNA absorbance was read at 405 nm in a microplate reader (PerkinElmer, Shelton, Conn.). Aliquots of samples were used to quantify protein concentration using the bicinchoninic acid kit (Pierce, Rockford, Ill.).

T2 sequence (Q9HBW0 whole entry): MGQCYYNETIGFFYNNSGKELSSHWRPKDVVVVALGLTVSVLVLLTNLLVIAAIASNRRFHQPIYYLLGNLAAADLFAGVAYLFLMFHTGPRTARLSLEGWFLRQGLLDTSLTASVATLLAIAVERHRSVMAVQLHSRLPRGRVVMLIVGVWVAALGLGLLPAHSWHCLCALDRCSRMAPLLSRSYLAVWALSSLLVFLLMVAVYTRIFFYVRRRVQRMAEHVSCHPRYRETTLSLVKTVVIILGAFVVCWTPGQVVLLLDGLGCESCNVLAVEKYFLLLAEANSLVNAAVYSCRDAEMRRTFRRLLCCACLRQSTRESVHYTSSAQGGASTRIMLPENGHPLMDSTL
T1 sequence (Q92633 whole entry): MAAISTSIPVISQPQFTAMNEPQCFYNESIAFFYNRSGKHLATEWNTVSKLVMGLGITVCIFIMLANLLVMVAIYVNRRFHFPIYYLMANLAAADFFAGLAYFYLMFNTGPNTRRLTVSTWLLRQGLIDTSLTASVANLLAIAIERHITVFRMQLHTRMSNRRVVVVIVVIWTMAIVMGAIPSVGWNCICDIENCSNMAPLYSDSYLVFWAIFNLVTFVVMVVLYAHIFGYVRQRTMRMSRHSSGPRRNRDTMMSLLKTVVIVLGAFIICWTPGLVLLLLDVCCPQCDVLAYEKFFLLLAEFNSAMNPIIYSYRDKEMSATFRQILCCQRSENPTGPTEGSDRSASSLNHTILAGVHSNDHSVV

Row | Compound | Activity (LPA receptors (LPA1/2/3)) | further results
1 | CCCCCCCC(CCCCCCC)OP(=O)(O)O.N.N [RxBVG-I-27, Ammonium phosphoryl-mono-(1-heptyl-octyl) ester] | Pan antago- nist (LPA1/2/3) | 
2 | CCCCCCCCCCCCOP(=O)(O)O [FAP 12] |  | inhibition of camptothecin-induced DNA fragmentation (IEC-6 cells [1]): inhibited
3 | CCCCCCCC/C=C\CCCCCCCC(=O)OC[C@@H](O)COP(=O)(O)O [oleoyl-LPA] |  | inhibition of camptothecin-induced DNA fragmentation (IEC-6 cells [1]): inhibited
4 | CCCCCCCC(CCCCCCC)OP(O)(O)=S [RxBVG-I-28, Thiophosphoric acid O-(1-heptyl-octyl) ester] | Pan antago- nist (LPA1/2/3) | 
5 | BP(=O)(O)OCCCCCCCC [RxBVG-II-13, Potassium boranophosphoryl monooctyl ester] | LPA2 agonist | 
6 | CCCCCCCCC=CCCCCCCCCOP(O)(O)=S [8g, Thiophosphoric acid O-octadec-9-enyl ester] |  | ligand property at LPA1 (FIG. 2A) (LPA1 receptor): agonist; ligand property at LPA2 (FIG. 2B) (LPA2 receptor): agonist; ligand property at LPA3 (FIG. 2C) (LPA3 receptor): agonist; inhibition of camptothecin-induced DNA fragmentation (IEC-6 cells [1]): comparable to that of LPA but supersedes it at concentrations above 3 μM; crypt survival ([2]; 200 μM into the stomach 2 h prior irradiation, FIG. 3): significantly (P>0.01) enhanced crypt survival; crypt survival, dose dependence ([2]; FIG. 4): dose-dependent enhancement of crypt survival; crypt survival in jejunum and ileum compared with LPA ([2]; γ-irradiated mice, FIG. 5): present in the jejunum and ileum and exceeded that of LPA
7 | CCCC/C=C\CCCCCCCCCOP(O)(O)=S.N [RxBVG-I-82, Ammonium thiophosphoryl-O-pentadec-10Z-enyl ester] | Pan antago- nist (LPA1/2/3) | 
8 | [K+].[O-]P(O)(=S)OCCCCCCCCC1CC1 [RxBVG-II-23, Potassium thiophosphoryl-O-(8-cyclopropyl-octyl) ester] | LPA2 agonist | 
9 | CCCCCCCCCCCCCCC(C(=O)O)C(=O)O [RxBVG-I-8, 2-Tetradecyl-malonic acid] | LPA2 agonist | 
10 | CCCCCCCCC1CC1CCCCCCCCOP(O)(O)=S.N (stereo not drawn) [RxBVG-I-93, Ammonium thiophosphoryl-O-[8-(2-octyl-cis-cyclopropyl)-octyl]ester] | LPA2 agonist | efficacy in DNA fragmentation assay (IEC-6 cells [3]): even more efficacy than did oleoyl thiophosphate
11 | CCCCCC/C=C\CCCCCCCCOP(O)(O)=S.N [RxBVG-I-81, Ammonium thiophosphoryl-O-hexadec-9Z-enyl ester] | Pan antago- nist (LPA1/2/3) | 
12 | CCCCCCCC/C=C/CCCCCCCCOP(O)(O)=S.N [RxBVG-I-67, Ammonium thiophosphoryl-O-octadec-9E-enyl ester] | LPA3 agonist | 
13 | Ammonium thiophosphoryl-O-eicos-11Z-enyl ester [RxBVG-I-77] | LPA2 agonist | 
14 | CCCCCCC1CC1CCCCCCCCCCOP([O-])(O)=S.[K+] (centres unmarked) [RxBVG-II-34, Potassium thiophosphoryl-O-[10-(2-hexyl-cyclopropyl)-decyl]ester] | LPA2 agonist | 
15 | BP(=O)(O)OCCCCCCCCCCCCCC [RxBVG-II-9, Potassium boranophosphoryl monotetradecyl ester] | LPA2 agonist | 
16 | BP(=O)(O)OCCCCCCCCCCCCCCCCCC [RxBVG-II-7, Potassium boranophosphoryl monooctadecyl ester] | LPA2 agonist | 
17 | CCCCCCC1CC1CCCCCCCCOP(O)(O)=S.N (centres unmarked) [RxBVG-II-22, Ammonium thiophosphoryl-O-[8-(2-hexyl-cyclopropyl)-octyl]ester] | LPA2 agonist | 
18 | CCCCC/C=C\C/C=C\CCCCCCCCOP(O)(O)=S [RxBVG-I-83, Ammonium thiophosphoryl-O-octadeca-9Z,12Z-dienyl ester] | LPA2 agonist | 
19 | CCCCCCCCCCCCCCCCCCC(COP(O)(O)=S)COP(O)(O)=S.N [RxBVG-I-64, Ammonium thiophosphoryl-O-(2-thiophosphonooxymethyl-eicosyl) ester] | LPA3 agonist | 
20 | CCCCCC1CC1CC1CC1CCCCCCCCOP([O-])(O)=S.[K+] (centres unmarked) [RxBVG-II-35, Potassium thiophosphoryl-O-{8-[2-(2-pentyl-cyclopropylmethyl)-cyclopropyl]octyl}ester] | LPA2 agonist | 
21 | Potassium boranophosphoryl monododecyl ester [RxBVG-II-11] | LPA2 agonist | 
22 | CCCCCCCCC1CC1CCCCCCCCCCOP([O-])(O)=S.[K+] (centres unmarked) [RxBVG-II-36, Potassium thiophosphoryl-O-[10-(2-octyl-cyclopropyl)-decyl]ester] | LPA2 agonist | 
